# Experimental data published in ChEMBL document CHEMBL1255557, “Heterobiaryl and heterobiaryl ether derived M5 positive allosteric modulators” (Bioorg Med Chem Lett, 2010).
# Calls of active or inactive are those of the source. The calls are words filed in the database; no cut-off is given here.
# What was measured:
# [1] = target: T1, Muscarinic acetylcholine receptor M5 (Homo sapiens, UniProt P08912); experiment: Positive allosteric modulation of muscarinic M5 receptor expressed in CHO cells assessed as effect on acetylcholine-induced intracellular calcium mobilization after 1 hr by FLIPR assay; type: functional, cell-based
# T1 sequence (P08912 whole entry): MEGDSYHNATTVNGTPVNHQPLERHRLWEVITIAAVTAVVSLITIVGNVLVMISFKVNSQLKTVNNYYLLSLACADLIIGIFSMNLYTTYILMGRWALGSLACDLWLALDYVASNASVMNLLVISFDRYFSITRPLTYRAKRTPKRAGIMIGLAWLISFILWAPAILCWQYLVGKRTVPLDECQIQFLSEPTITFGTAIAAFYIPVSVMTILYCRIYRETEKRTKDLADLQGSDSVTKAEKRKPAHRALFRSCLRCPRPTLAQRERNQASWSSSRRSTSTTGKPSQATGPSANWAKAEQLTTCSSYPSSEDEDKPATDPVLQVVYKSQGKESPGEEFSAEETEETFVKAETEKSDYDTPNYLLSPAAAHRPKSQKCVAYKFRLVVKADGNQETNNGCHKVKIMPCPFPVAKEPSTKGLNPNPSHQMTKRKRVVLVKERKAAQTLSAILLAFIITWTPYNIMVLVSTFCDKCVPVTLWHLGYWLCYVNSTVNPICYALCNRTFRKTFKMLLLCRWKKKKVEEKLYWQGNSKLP
# [2] = target: T2, Muscarinic acetylcholine receptor M5 (Homo sapiens) (UniProt P08912); experiment: Positive allosteric modulation of muscarinic M5 receptor expressed in CHO cells assessed as effect on acetylcholine-induced intracellular calcium mobilization after 1 hr by FLIPR assay relative to acetylcholine; type: functional, cell-based
# T2 sequence (whole entry): T1 sequence (P08912 whole entry)
# [3] = target: T2, Muscarinic acetylcholine receptor M5 (Homo sapiens); experiment: Positive allosteric modulation of muscarinic M5 receptor expressed in CHO cells assessed as potentiation of acetylcholine-induced intracellular calcium mobilization at 10 uM after 1 hr by FLIPR assay; type: functional, cell-based
# [4] = Partition coefficient, log P of the compound; type: physicochemical; conditions: octanol/water
# [5] = target: T2, Muscarinic acetylcholine receptor M5 (Homo sapiens); experiment: Positive allosteric modulation of muscarinic M5 receptor expressed in CHO cells assessed as potentiation of acetylcholine-induced intracellular calcium mobilization at 30 uM after 1 hr by FLIPR assay relative to acetylcholine; type: functional, cell-based
SMILES,Activity [3],other results
O=C1C(=O)N(Cc2ccc(Oc3nccs3)cc2)c2ccc(OC(F)(F)F)cc21,–,EC50 [1]: 2.8 µM; Emax [2]: 58%
COc1ccc2c(c1)C(=O)C(=O)N2Cc1ccc(-c2ccccc2)cc1,inactive,–
O=C1C(=O)N(Cc2ccc(-c3ccccc3)cc2)c2ccc(Oc3ccccn3)cc21,inactive,–
COc1cccc(Oc2ccc(CN3C(=O)C(=O)c4cc(OC(F)(F)F)ccc43)cc2)n1,–,EC50 [1]: 2.2 µM; Emax [2]: 51%
CN(C)CCOc1ccc2c(c1)C(=O)C(=O)N2Cc1ccc(-c2ccccc2)cc1,inactive,–
O=C1C(=O)N(Cc2ccc(-c3ccccc3)cc2)c2ccc(OCc3ccc(F)cc3)cc21,inactive,–
O=C1C(=O)N(Cc2ccc(-c3ccncc3)nc2)c2ccc(OC(F)(F)F)cc21,–,EC50 [1]: 4.4 µM; Emax [2]: 50%
O=C1C(=O)N(Cc2ccc(-c3ccccc3)cc2)c2ccc(OCc3cccc(OC(F)(F)F)c3)cc21,inactive,–
O=C1C(=O)N(Cc2ccc(-c3ccccc3)cc2)c2ccc(OCCc3ccccc3C(F)(F)F)cc21,inactive,–
O=C1C(=O)N(Cc2ccc(-c3ccccc3)cc2)c2ccc(OCc3cccc(F)c3)cc21,inactive,–
O=C1C(=O)N(Cc2ccc(-c3ccccc3)cc2)c2ccc(Oc3ncccn3)cc21,inactive,–
O=C1C(=O)N(Cc2ccc(-c3cccnc3)cc2)c2ccc(OC(F)(F)F)cc21,–,EC50 [1]: 1.6 µM; Emax [2]: 51%
O=C1C(=O)N(Cc2ccc(-c3ccccc3)cc2)c2ccc(OCc3cccc(C(F)(F)F)c3)cc21,inactive,–
O=C1C(=O)N(Cc2ccc(-c3ccccc3)cc2)c2ccc(OCCc3ccccc3Cl)cc21,inactive,–
O=C1C(=O)N(Cc2ccc(-c3ccccc3)cc2)c2ccc(OCCC(F)(F)F)cc21,inactive,–
O=C1C(=O)N(Cc2ccc(-c3ccccc3)cc2)c2ccc(OCCN3CCCC3)cc21,inactive,–
O=C1C(=O)N(Cc2ccc(-c3ccccc3)cc2)c2ccc(OCc3cccc(Cl)c3)cc21,inactive,–
O=C1C(=O)N(Cc2ccc(-c3ccccc3)cc2)c2ccc(OCc3ccccc3)cc21,inactive,–
O=C1C(=O)N(Cc2ccc(-c3ccccc3)cc2)c2ccc(OCc3ccc(C(F)(F)F)cc3)cc21,inactive,–
O=C1C(=O)N(Cc2ccc(-c3ccccc3)cc2)c2ccc(OCC3CCCCC3)cc21,inactive,–
O=C1C(=O)N(Cc2ccc(-c3ccccc3)cc2)c2ccc(OCc3cccnc3)cc21,inactive,–

SMILES,Activity [3],other results
O=C1C(=O)N(Cc2ccc(-c3cccnc3)nc2)c2ccc(OC(F)(F)F)cc21,–,EC50 [1]: 4 µM; logP [4]: 3; Emax [2]: 53%
O=C1C(=O)N(Cc2ccc(Cl)nc2)c2ccc(OC(F)(F)F)cc21,–,EC50 [1]: 2.4 µM; Emax [2]: 80%
O=C1C(=O)N(Cc2ccc(-c3ccccc3)cc2)c2ccc(OCC3CCC3)cc21,inactive,–
O=C1C(=O)N(Cc2ccc(-c3ccccc3)cc2)c2ccc(OCC(F)(F)F)cc21,inactive,–
O=C1C(=O)N(Cc2ccc(-c3ccccc3)cc2)c2ccc(OCc3ccccn3)cc21,inactive,–
O=C1C(=O)N(Cc2ccc(-c3ccncc3)cc2)c2ccc(OC(F)(F)F)cc21,–,EC50 [1]: 2.8 µM; Emax [2]: 60%
O=C1C(=O)N(Cc2ccc(-c3ccccc3)cc2)c2ccc(OCCN3CCOCC3)cc21,inactive,–
O=C1C(=O)N(Cc2ccc(-c3ccccc3)cc2)c2ccc(OCc3c(F)cccc3F)cc21,inactive,–
O=C1C(=O)N(Cc2ccc(-c3ccccc3)cc2F)c2ccc(OC(F)(F)F)cc21,–,EC50 [1]: 5.9 µM; Emax [2]: 63%
CCCOc1ccc2c(c1)C(=O)C(=O)N2Cc1ccc(-c2ccccc2)cc1,inactive,–
O=C1C(=O)N(Cc2ccc(Oc3ccccn3)cc2)c2ccc(OC(F)(F)F)cc21,–,EC50 [1]: 3.2 µM; Emax [2]: 46%
O=C1C(=O)N(Cc2ccc(-c3cncnc3)cc2)c2ccc(OC(F)(F)F)cc21,–,EC50 [1]: 2.1 µM; Emax [2]: 53%
O=C1C(=O)N(Cc2ccc(-c3ccccc3)cc2)c2ccc(OCc3ccccc3Cl)cc21,inactive,–
O=C1C(=O)N(Cc2ccc(-c3ccccc3)cn2)c2ccc(OC(F)(F)F)cc21,–,EC50 [1]: 3.1 µM; Emax [2]: 47%
COc1ccccc1COc1ccc2c(c1)C(=O)C(=O)N2Cc1ccc(-c2ccccc2)cc1,inactive,–
CCCCOc1ccc2c(c1)C(=O)C(=O)N2Cc1ccc(-c2ccccc2)cc1,inactive,–
O=C(O)COc1ccc2c(c1)C(=O)C(=O)N2Cc1ccc(-c2ccccc2)cc1,inactive,–
O=C1C(=O)N(Cc2ccc(Oc3ccccc3)cc2)c2ccc(OC(F)(F)F)cc21,–,fold change (FC) [5]: 5
O=C1C(=O)N(Cc2cccc(-c3ccccc3)c2)c2ccc(OC(F)(F)F)cc21,–,EC50 [1]: > 30 µM
O=C1C(=O)N(Cc2ccc(-c3ccccc3)cc2)c2ccc(OCc3ccc(F)cc3F)cc21,inactive,–
O=C1C(=O)N(Cc2ccc(-c3ccccc3)cc2)c2ccc(OCCc3ccccc3F)cc21,inactive,–

SMILES,Activity [3],other results
CC(C)COc1ccc2c(c1)C(=O)C(=O)N2Cc1ccc(-c2ccccc2)cc1,inactive,–
COc1cccc(COc2ccc3c(c2)C(=O)C(=O)N3Cc2ccc(-c3ccccc3)cc2)c1,inactive,–
COc1ccc(COc2ccc3c(c2)C(=O)C(=O)N3Cc2ccc(-c3ccccc3)cc2)cc1C(F)(F)F,inactive,–
O=C1C(=O)N(Cc2ccc(-c3ccccc3)cc2)c2ccc(OC(F)(F)F)cc21,–,logP [4]: 4.6; fold change (FC) [5]: 10
O=C1C(=O)N(Cc2ccc(-c3cccnc3)cn2)c2ccc(OC(F)(F)F)cc21,–,EC50 [1]: > 30 µM
Cc1ccccc1CCOc1ccc2c(c1)C(=O)C(=O)N2Cc1ccc(-c2ccccc2)cc1,inactive,–
O=C1C(=O)N(Cc2ccc(-c3ccccc3)cc2)c2ccc(OCc3ccccc3C(F)(F)F)cc21,inactive,–
CCOc1ccc2c(c1)C(=O)C(=O)N2Cc1ccc(-c2ccccc2)cc1,inactive,–
O=C1C(=O)N(Cc2ccc(-c3ccccc3)cc2)c2ccc(OCc3ccc(OC(F)(F)F)cc3)cc21,inactive,–
O=C1C(=O)N(Cc2cccc(Oc3ccccc3)c2)c2ccc(OC(F)(F)F)cc21,–,EC50 [1]: > 30 µM
O=C1C(=O)N(Cc2ccc(-c3ccccc3)cc2)c2ccc(OCc3ccccc3F)cc21,inactive,–
O=C1C(=O)N(Cc2ccc(-c3ccncc3)cn2)c2ccc(OC(F)(F)F)cc21,–,EC50 [1]: > 30 µM
O=C1C(=O)N(Cc2ccc(-c3ccccc3)cc2)c2ccc(OCc3ccncc3)cc21,inactive,–
CC1CCCN(COc2ccc3c(c2)C(=O)C(=O)N3Cc2ccc(-c3ccccc3)cc2)C1 (stereo unspecified),inactive,–
O=C1C(=O)N(Cc2ccc(-c3ccccc3)cc2)c2ccc(OCc3cc(F)ccc3F)cc21,inactive,–
Cc1ccccc1COc1ccc2c(c1)C(=O)C(=O)N2Cc1ccc(-c2ccccc2)cc1,inactive,–
O=C1C(=O)N(Cc2ccc3c(c2)OCO3)c2ccc(OC(F)(F)F)cc21,–,EC50 [1]: 3.2 µM; Emax [2]: 90%
O=C1C(=O)N(Cc2ccc(-c3ccccc3)cc2)c2ccc(OCc3ccc(Cl)cc3)cc21,inactive,–
COc1ccc(COc2ccc3c(c2)C(=O)C(=O)N3Cc2ccc(-c3ccccc3)cc2)cc1,inactive,–
O=C1C(=O)N(Cc2c(F)cc(-c3ccccc3)cc2F)c2ccc(OC(F)(F)F)cc21,–,EC50 [1]: > 30 µM
